Test results taken from ChEMBL document CHEMBL1201862, “PubChem BioAssay data set” (2004).
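Compound exposure: 48 hours, 5 concentrations, 96-well plates. GI50 is the concentration that inhibits growth by half.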 Active and inactive are the calls of the source. Cut-off read from the data, not from the text of the source: active = GI50 up to about 1.1 µM and inactive = higher.

Columns and labels:
Experiment in all cases: DTP human tumour cell line panel, 48 h
EKVX = test system: EKVX
SK-MEL-2 = test system: SK-MEL-2
M14 = test system: M14
SR = test system: SR
MOLT-4 = test system: MOLT-4
K562 = test system: K562
CCRF-CEM = test system: CCRF-CEM
OVCAR-4 = test system: OVCAR-4
DU-145 = test system: DU-145
OVCAR-3 = test system: OVCAR-3
COLO 205 = test system: COLO 205
Malme-3M = test system: Malme-3M
OVCAR-8 = test system: OVCAR-8
SNB-75 = test system: SNB-75
NCI-H23 = test system: NCI-H23
HCT-15 = test system: HCT-15
NCI/ADR-RES = test system: NCI/ADR-RES
SK-MEL-28 = test system: SK-MEL-28
LOX IMVI = test system: LOX IMVI

Row | SMILES | GI50 (EKVX) | GI50 (SK-MEL-2) | GI50 (M14) | GI50 (SR) | GI50 (MOLT-4) | GI50 (K562) | GI50 (CCRF-CEM) | GI50 (OVCAR-4) | GI50 (DU-145) | GI50 (OVCAR-3) | GI50 (COLO 205) | GI50 (Malme-3M) | GI50 (OVCAR-8) | GI50 (SNB-75) | GI50 (NCI-H23) | GI50 (HCT-15) | GI50 (NCI/ADR-RES) | GI50 (SK-MEL-28) | GI50 (LOX IMVI)
1 | O=C1NC(Nc2ccccc2Cl)=N/C1=C\c1c(Cl)cccc1Cl | 31 µM (inactive) | 28.8 µM (inactive) | 40.9 µM (inactive) | 5.52 µM (inactive) | 27 µM (inactive) | 17.1 µM (inactive) | 34.4 µM (inactive) | 11.6 µM (inactive) | 37.2 µM (inactive) | 27 µM (inactive) | 27.7 µM (inactive) | 31.1 µM (inactive) | 31.6 µM (inactive) | 24.7 µM (inactive) | 37.1 µM (inactive) | 25.5 µM | 23.2 µM (inactive) | 51.8 µM (inactive) | 29.4 µM (inactive)
2 | O=[N+]([O-])C(=C(N1CCOCC1)N1CCOCC1)/C(Cl)=C(\Cl)Br | 17.1 µM (inactive) | 21.8 µM (inactive) | 13.4 µM (inactive) | 17.2 µM (inactive) | 15.3 µM (inactive) | 15.2 µM (inactive) | 2.65 µM (inactive) | 18.4 µM (inactive) | 46.6 µM (inactive) | 14.5 µM (inactive) | 14.8 µM (inactive) | 16.1 µM (inactive) | 24.1 µM (inactive) | 17.5 µM (inactive) | 17.3 µM (inactive) | 15.2 µM | 22.2 µM (inactive) | 17.4 µM (inactive) | 19.3 µM (inactive)
3 | CCOc1cc(NC(C)=O)ccc1C(=O)NNS(=O)(=O)c1ccc(Cl)cc1Cl | > 50 µM (inactive) | > 50 µM (inactive) | > 50 µM (inactive) | 13.9 µM (inactive) | 8.75 µM (inactive) | 0.232 µM (active) | > 50 µM (inactive) | > 50 µM (inactive) | > 50 µM (inactive) | > 50 µM (inactive) | > 50 µM (inactive) | > 50 µM (inactive) | > 50 µM (inactive) | > 50 µM (inactive) | > 50 µM (inactive) | > 50 µM | > 50 µM (inactive) | > 50 µM (inactive) | 45.5 µM (inactive)
4 | O=C(/C=C/c1ccc(C(F)(F)F)cc1)c1c([O-])on[n+]1-c1ccccc1 | 2.24 µM (inactive) | 2.81 µM (inactive) | 2.3 µM (inactive) | 0.196 µM (active) | 0.284 µM (active) | 0.395 µM (active) | 0.108 µM (active) | 5.33 µM (inactive) | 2.21 µM (inactive) | 1.58 µM (inactive) | 1.75 µM (inactive) | > 100 µM (inactive) | 1.92 µM (inactive) | 2.07 µM (inactive) | 3.13 µM (inactive) | 1.31 µM | 1.78 µM (inactive) | 1.61 µM (inactive) | 0.403 µM (active)
5 | O=C(O)CC1(CC(=O)O)Nc2ccccc2SC1=O | > 100 µM (inactive) | > 100 µM (inactive) | > 100 µM (inactive) | > 100 µM (inactive) | > 100 µM (inactive) | > 100 µM (inactive) | > 100 µM (inactive) | > 100 µM (inactive) | > 100 µM (inactive) | > 100 µM (inactive) | > 100 µM (inactive) | > 100 µM (inactive) | > 100 µM (inactive) | > 100 µM (inactive) | > 100 µM (inactive) | > 100 µM | > 100 µM (inactive) | > 100 µM (inactive) | > 100 µM (inactive)
6 | O=C1C=C(C2=C(C3=CC(=O)c4ccccc4C3=O)C(=O)c3ccccc3C2=O)C(=O)c2ccccc21 | 11.1 µM (inactive) | 17.2 µM (inactive) | 8.87 µM (inactive) | 31.1 µM (inactive) | 0.389 µM (active) | 2.67 µM (inactive) | 0.286 µM (active) | 6.03 µM (inactive) | 5.18 µM (inactive) | 2.84 µM (inactive) | 3.94 µM (inactive) | 2.11 µM (inactive) | 5.62 µM (inactive) | 9.46 µM (inactive) | 7.43 µM (inactive) | 9.89 µM | 11.1 µM (inactive) | 14 µM (inactive) | 3.36 µM (inactive)
7 | COc1ccc(C2CC(C)(O)Oc3cc4c(cc32)OCO4)cc1 (centres undefined) | 40.2 µM (inactive) | 15.8 µM (inactive) | 36 µM (inactive) | 24.2 µM (inactive) | 22.1 µM (inactive) | 15.2 µM (inactive) | 19.3 µM (inactive) | 38.6 µM (inactive) | 61.2 µM (inactive) | 32.3 µM (inactive) | 19.7 µM (inactive) | 47.2 µM (inactive) | 35 µM (inactive) | 29.7 µM (inactive) | 33.7 µM (inactive) | 23.8 µM | 23.3 µM (inactive) | 45.6 µM (inactive) | 27.2 µM (inactive)
8 | N/N=C1N=C(Cl)/C(=C/c2ccco2)N\1 | > 100 µM (inactive) | 36.2 µM (inactive) | 35.2 µM (inactive) | 25.8 µM (inactive) | 11.9 µM (inactive) | 14.8 µM (inactive) | 31.4 µM (inactive) | 31.6 µM (inactive) | 50.4 µM (inactive) | 28.7 µM (inactive) | 43.1 µM (inactive) | 52.5 µM (inactive) | 44.5 µM (inactive) | 32.7 µM (inactive) | 54.8 µM (inactive) | 31.5 µM | 44.5 µM (inactive) | 60.8 µM (inactive) | 27.9 µM (inactive)
9 | Cc1nnc(SCc2nc(C#N)c(C#N)nc2CSc2nnc(C)s2)s1 | 14.7 µM (inactive) | 25.2 µM (inactive) | 16.6 µM (inactive) | 4.6 µM (inactive) | 2.51 µM (inactive) | 4.37 µM (inactive) | 1.98 µM (inactive) | 15.2 µM (inactive) | 14.5 µM (inactive) | 6.78 µM (inactive) | 11.5 µM (inactive) | 5.75 µM (inactive) | 12.9 µM (inactive) | 19.8 µM (inactive) | 19.1 µM (inactive) | 7.66 µM | 30.6 µM (inactive) | 26.9 µM (inactive) | 8.89 µM (inactive)
10 | CCOC(=O)NC(NC1=NCCS1)(C(=O)OCC)C(F)(F)F (centres undefined) | > 100 µM (inactive) | > 100 µM (inactive) | > 100 µM (inactive) | > 100 µM (inactive) | > 100 µM (inactive) | > 100 µM (inactive) | > 100 µM (inactive) | > 100 µM (inactive) | > 100 µM (inactive) | > 100 µM (inactive) | > 100 µM (inactive) | > 100 µM (inactive) | > 100 µM (inactive) | > 100 µM (inactive) | > 100 µM (inactive) | > 100 µM | > 100 µM (inactive) | > 100 µM (inactive) | > 100 µM (inactive)
11 | N#CCC12CC=CCC1=C(O)C(=O)c1ccc(O)cc12 (centres undefined) | > 100 µM (inactive) | > 100 µM (inactive) | 55.7 µM (inactive) | 90.8 µM (inactive) | > 100 µM (inactive) | > 100 µM (inactive) | > 100 µM (inactive) | 52 µM (inactive) | > 100 µM (inactive) | > 100 µM (inactive) | > 100 µM (inactive) | > 100 µM (inactive) | > 100 µM (inactive) | 67.6 µM (inactive) | > 100 µM (inactive) | > 100 µM | > 100 µM (inactive) | > 100 µM (inactive) | > 100 µM (inactive)
12 | O=C(OCc1ccccc1)C1(N2CN(C3(C(=O)OCc4ccccc4)CCCC3)CN(C3(C(=O)OCc4ccccc4)CCCC3)C2)CCCC1 | > 10 µM (inactive) | > 10 µM (inactive) | > 10 µM (inactive) | > 10 µM (inactive) | > 10 µM (inactive) | > 10 µM (inactive) | > 10 µM (inactive) | > 10 µM (inactive) | > 10 µM (inactive) | > 10 µM (inactive) | > 10 µM (inactive) | > 10 µM (inactive) | > 10 µM (inactive) | > 10 µM (inactive) | > 10 µM (inactive) | > 10 µM | > 10 µM (inactive) | > 10 µM (inactive) | > 10 µM (inactive)
13 | NC1=Nc2ccccc2Sc2nncn21 | > 100 µM (inactive) | > 100 µM (inactive) | > 100 µM (inactive) | > 100 µM (inactive) | > 100 µM (inactive) | > 100 µM (inactive) | > 100 µM (inactive) | > 100 µM (inactive) | > 100 µM (inactive) | > 100 µM (inactive) | > 100 µM (inactive) | > 100 µM (inactive) | > 100 µM (inactive) | > 100 µM (inactive) | > 100 µM (inactive) | > 100 µM | > 100 µM (inactive) | > 100 µM (inactive) | > 100 µM (inactive)
14 | Cc1cc(C)c2c(=O)cc(-c3ccccc3)[nH]c2c1 | 4.47 µM (inactive) | 8.17 µM (inactive) | 3.37 µM (inactive) | 2.01 µM (inactive) | 2.96 µM (inactive) | 0.57 µM (active) | 1.49 µM (inactive) | 9.71 µM (inactive) | 4.44 µM (inactive) | 3.47 µM (inactive) | 1.17 µM (inactive) | 2.71 µM (inactive) | 3.66 µM (inactive) | 3.16 µM (inactive) | 2.66 µM (inactive) | 0.828 µM | 1.61 µM (inactive) | 2.52 µM (inactive) | 2.69 µM (inactive)
15 | S=c1nc(N2CCCCC2)c2cn[nH]c2[nH]1 | > 100 µM (inactive) | 20.1 µM (inactive) | 74 µM (inactive) | 14.5 µM (inactive) |  | 29.9 µM (inactive) | 10.4 µM (inactive) | 93.5 µM (inactive) | 59.7 µM (inactive) | 54.8 µM (inactive) | 28.8 µM (inactive) | 64.9 µM (inactive) | 64.9 µM (inactive) | > 100 µM (inactive) | 40.4 µM (inactive) | 87.9 µM | > 100 µM (inactive) | 65.6 µM (inactive) | 39.4 µM (inactive)
